According to the supplement of paper PMC11061612:

Legend:
Capivasertib = compound: C1CN(CCC1(C(=O)N[C@@H](CCO)C2=CC=C(C=C2)Cl)N)C3=NC=NC4=C3C=CN4 [Capivasertib]; settings: max 10 µM
How it was run: (§1)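 Cancer cell lines were seeded in 1536-well plates in 7.5 μl DMEM/F12 or RPMI with 10% FBS, held 24 hours at 37°C and 5% CO2, then dosed for 72 hours (final DMSO typically 0.2%). Viability was read by CellTiter-Glo 2.0 luminescence and scaled between blank-well and DMSO-well means. The single-agent IC50 comes from dose responses fitted to a two-parameter logistic curve with a non-linear mixed effects model.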

AZD1775 = compound: C=CCn1c(=O)c2cnc(Nc3ccc(N4CCN(C)CC4)cc3)nc2n1-c1cccc(C(C)(C)O)n1 [AZD1775]; settings: max 3 µM
How it was run: as §1

Trametinib = compound: CC(=O)Nc1cccc(-n2c(=O)n(C3CC3)c(=O)c3c(Nc4ccc(I)cc4F)n(C)c(=O)c(C)c32)c1 [Trametinib]; settings: max 1 µM
How it was run: as §1

Palbociclib = compound: CC(=O)c1c(C)c2cnc(Nc3ccc(N4CCNCC4)cn3)nc2n(C2CCCC2)c1=O [Palbociclib]; settings: max 10 µM
How it was run: as §1

AZD1390 = compound: CC(C)n1c(=O)n(C)c2cnc3cc(F)c(-c4ccc(OCCCN5CCCCC5)nc4)cc3c21 [AZD1390]; settings: max 0.3 µM
How it was run: as §1

Venetoclax = compound: CC1(C)CCC(CN2CCN(c3ccc(C(=O)NS(=O)(=O)c4ccc(NCC5CCOCC5)c([N+](=O)[O-])c4)c(Oc4cnc5[nH]ccc5c4)c3)CC2)=C(c2ccc(Cl)cc2)C1 [Venetoclax]; settings: max 1 µM
How it was run: as §1

Dasatinib = compound: CC1=C(C(=CC=C1)Cl)NC(=O)C2=CN=C(S2)NC3=CC(=NC(=N3)C)N4CCN(CC4)CCO [Dasatinib]; settings: max 2 µM
How it was run: as §1

SG3199 = compound: CC1=CN2[C@@H](C1)C=NC3=CC(=C(C=C3C2=O)OC)OCCCCCOC4=C(C=C5C(=C4)N=C[C@@H]6CC(=CN6C5=O)C)OC [SG3199]; settings: max 0.001 µM
How it was run: as §1

AZD2811 = compound: CCN(CCO)CCCOc1ccc2c(Nc3cc(CC(=O)Nc4cccc(F)c4)[nH]n3)ncnc2c1 [AZD2811]; settings: max 1 µM
How it was run: as §1

SN-38 = compound: CCc1c2c(nc3ccc(O)cc13)-c1cc3c(c(=O)n1C2)COC(=O)[C@]3(O)CC [SN-38]; settings: max 0.3 µM
How it was run: as §1

AZD0156 = compound: CN(C)CCCOc1ccc(-c2ccc3ncc4c(c3c2)n(C2CCOCC2)c(=O)n4C)cn1 [AZD0156]; settings: max 3 µM
How it was run: as §1

AZD4320 = compound: CN(CC[C@H](CSC1=CC=CC=C1)NC2=C(C=C(C=C2)S(=O)(=O)NC(=O)C3=CC=C(C=C3)N4CCC(CC4)[C@H](C5=CC=CC=C5C6=CC=C(C=C6)Cl)O)S(=O)(=O)C(F)(F)F)CCO [AZD4320]; settings: max 1 µM
How it was run: as §1

Alisertib = compound: COc1cc(Nc2ncc3c(n2)-c2ccc(Cl)cc2C(c2c(F)cccc2OC)=NC3)ccc1C(=O)O [Alisertib]; settings: max 10 µM
How it was run: as §1

Gefitinib = compound: COc1cc2ncnc(Nc3ccc(F)c(Cl)c3)c2cc1OCCCN1CCOCC1 [Gefitinib]; settings: max 10 µM
How it was run: as §1

Prexasertib = compound: COc1cccc(OCCCN)c1-c1cc(Nc2cnc(C#N)cn2)n[nH]1 [Prexasertib]; settings: max 1 µM
How it was run: as §1

Doxorubicin = compound: COc1cccc2c1C(=O)c1c(O)c3c(c(O)c1C2=O)C[C@@](O)(C(=O)CO)C[C@@H]3O[C@H]1C[C@H](N)[C@H](O)[C@H](C)O1 [Doxorubicin]; settings: max 1 µM
How it was run: as §1

AZD5153 = compound: COc1nnc2ccc(N3CCC(c4ccc(OCCN5CCN(C)C(=O)[C@H]5C)cc4)CC3)nn12 [AZD5153]; settings: max 1 µM
How it was run: as §1

Lapatinib = compound: CS(=O)(=O)CCNCc1ccc(-c2ccc3ncnc(Nc4ccc(OCc5cccc(F)c5)c(Cl)c4)c3c2)o1 [Lapatinib]; settings: max 10 µM
How it was run: as §1

AZD8186 = compound: C[C@@H](Nc1cc(F)cc(F)c1)c1cc(C(=O)N(C)C)cc2c(=O)cc(N3CCOCC3)oc12 [AZD8186]; settings: max 3 µM
How it was run: as §1

Crizotinib = compound: C[C@@H](Oc1cc(-c2cnn(C3CCNCC3)c2)cnc1N)c1c(Cl)ccc(F)c1Cl [Crizotinib]; settings: max 10 µM
How it was run: as §1

Savolitinib = compound: C[C@@H](c1ccc2nccn2c1)n1nnc2ncc(-c3cnn(C)c3)nc21 [Savolitinib]; settings: max 1 µM
How it was run: as §1

AZD6738 = compound: C[C@@H]1COCCN1C2=NC(=NC(=C2)C3(CC3)[S@](=N)(=O)C)C4=C5C=CNC5=NC=C4 [AZD6738]; settings: max 10 µM
How it was run: as §1

AZD5991 = compound: Cc1c2c(nn1C)CSCc1cc(n(C)n1)CSc1cc(c3ccccc3c1)OCCCc1c(C(=O)O)n(C)c3c-2c(Cl)ccc13 [AZD5991]; settings: max 1 µM
How it was run: as §1

AZD7648 = compound: Cc1cc2ncnn2cc1Nc1ncc2c(n1)n(C1CCOCC1)c(=O)n2C [AZD7648]; settings: max 10 µM
How it was run: as §1

Taselisib = compound: Cc1nc(-c2cn3c(n2)-c2ccc(-c4cnn(C(C)(C)C(N)=O)c4)cc2OCC3)n(C(C)C)n1 [Taselisib]; settings: max 10 µM
How it was run: as §1

Selumetinib = compound: Cn1cnc2c(F)c(Nc3ccc(Br)cc3Cl)c(C(=O)NOCCO)cc21 [Selumetinib]; settings: max 10 µM
How it was run: as §1

Olaparib = compound: O=C(c1cc(Cc2n[nH]c(=O)c3ccccc23)ccc1F)N1CCN(C(=O)C2CC2)CC1 [Olaparib]; settings: max 10 µM
How it was run: as §1

Row | Cell Line | IC50, cell viability 72 h (Capivasertib) [µM] | IC50, cell viability 72 h (AZD1775) [nM] | IC50, cell viability 72 h (Trametinib) [nM] | IC50, cell viability 72 h (Palbociclib) [µM] | IC50, cell viability 72 h (AZD1390) [nM] | IC50, cell viability 72 h (Venetoclax) [nM] | IC50, cell viability 72 h (Dasatinib) [nM] | IC50, cell viability 72 h (SG3199) [nM] | IC50, cell viability 72 h (AZD2811) [nM] | IC50, cell viability 72 h (SN-38) [nM] | IC50, cell viability 72 h (AZD0156) [nM] | IC50, cell viability 72 h (AZD4320) [nM] | IC50, cell viability 72 h (Alisertib) [nM] | IC50, cell viability 72 h (Gefitinib) [µM] | IC50, cell viability 72 h (Prexasertib) [nM] | IC50, cell viability 72 h (Doxorubicin) [nM] | IC50, cell viability 72 h (AZD5153) [nM] | IC50, cell viability 72 h (Lapatinib) [µM] | IC50, cell viability 72 h (AZD8186) [nM] | IC50, cell viability 72 h (Crizotinib) [µM] | IC50, cell viability 72 h (Savolitinib) [nM] | IC50, cell viability 72 h (AZD6738) [µM] | IC50, cell viability 72 h (AZD5991) [nM] | IC50, cell viability 72 h (AZD7648) [µM] | IC50, cell viability 72 h (Taselisib) [nM] | IC50, cell viability 72 h (Selumetinib) [µM] | IC50, cell viability 72 h (Olaparib) [µM]
1 | A498 (Kidney Carcinoma) | 4.66 | 1690 | > 1000 | > 10 | > 300 | > 1000 | > 2000 | > 1 | > 1000 | > 300 | > 3000 | > 1000 | > 10000 | > 10 | 201 | > 1000 | > 1000 | > 10 | 425 | > 10 | > 1000 | > 10 | > 1000 | > 10 | 9450 | > 10 | > 10
2 | A549 (Lung Adenocarcinoma) | 6.93 | 2460 | 29.7 | 8.16 | > 300 | > 1000 | 170 | > 1 | 777 | 70 | > 3000 | > 1000 | 2340 | > 10 | > 1000 | 309 | 95.2 | 2.75 | > 3000 | 6.62 | > 1000 | 6.07 | > 1000 | > 10 | 1720 | 1.05 | > 10
3 | ARH-77 (Non-Cancerous) | 1.76 | 189 | > 1000 | > 10 | > 300 | > 1000 | 233 | > 1 | > 1000 | 6.68 | 1790 | 100 | 1170 | > 10 | 15.5 | 143 | 61.8 | 8.04 | 1270 | > 10 | > 1000 | 1.85 | 229 | > 10 | 528 | > 10 | > 10
